{"source": "patent US11015169B2", "about": "“Culture medium for pluripotent stem cells” (Kyoto University, priority 2014, dated 2021)", "assay_type_in_all_cases": "cell-based", "key": {"[1]": {"tested_on": "Human ES cell lines KhES-1", "assay": "Fold increase of cells within 6 days without passage", "protocol": "(§1) A medium further comprising an NFAT inhibitor (tacrolimus (FK-506) (1007965, produced by Cayman Chemical)), in addition to a GSK3β inhibitor (1-azakenpaullone or kenpaullone) and a DYRK inhibitor (ID-8), was prepared as in Example 1. Using this medium, subculture and cell observation were performed as in Example 1. Separately from this, passage P1 was performed using this medium, as in Example 1, followed by culturing for 6 days without performing passage. Thereafter, the number of the cells was counted in accordance with a standard method, and, based on the counted number of cells, how many times the number of the cells increased within 6 days was calculated."}, "[2]": {"tested_on": "Human ES cell lines KhES-1", "assay": "Subculture of human ES cells in medium comprising a GSK3β inhibitor and a DYRK inhibitor, cell observation", "details": "KhES-1, no feeder cells, vitronectin-N-coated dish; for maintenance of the ES cells (stability), among the GSK3β inhibitors: combined with DYRK inhibitor ID-8 500 nM, 1-azakenpaullone 750 nM, kenpaullone 500 nM", "protocol": "25 mL of a solution in which a powder DMEM/F-12 medium (D0547, produced by Sigma-Aldrich) had been diluted two-fold with water, 1.4 mL of 6% sodium hydrogen carbonate solution, 0.75 mL of 1 M HEPES solution, 0.045 mL of 0.23 M ascorbic acid solution, 0.9 ML of ITS (Insulin-Transferrin-Selenium: 1 mg/ml-0.55 mg/ml-0.7 μg/ml) solution (ITS-G 41400-045, produced by Life Technologies), and 16.905 mL of water were mixed to obtain 45 mL of basal medium (340 mOsm, pH 7.2 to 7.5).\nA GSK3β inhibitor (1-azakenpaullone (A3734, produced by Sigma-Aldrich), kenpaullone (1094-1, produced by BioVision), CHIR99021 (1386, produced by Axon Medchem), or BIO (B1686, produced by Sigma-Aldrich)), and a DYRK inhibitor (ID-8 (11786, produced by Sigma-Aldrich), harmine (Ser. No. 10/010,324, produced by Cayman Chemical), an indirubin analog 716 (6i) (ACS Medicinal Chemistry Letters, 2013, vol. 4, no. 1, pp. 22-26), INDY (405273, produced by Merck Millipore Corporation), L41 (MR-00023, produced by AdipoGen), or TG003 (4336, produced by R&D Systems)) were each added singly or in combination to the basal medium to thereby obtain a medium. The following are final concentrations in the medium.\nHuman ES cell lines KhES-1 (provided by Riken BioResource Center) were subcultured in the above medium. More specific details are below. The following culture was performed in the absence of feeder cells in a dish (vitronectin-N-coated dish) in which coating treatment was performed overnight using 1 μg of vitronectin-N (A14700 produced by Life Technologies) per 1 cm^2 of the culture dish.\nES cell colonies cultured in accordance with a standard method using a general-purpose medium for human ES cells (20% knockout serum replacement (10828-028, produced by Life Technology), 4 ng/ml of FGF2 (100-18B, produced by Peprotech)/DMEM/F-12 medium (11330-032, produced by Life Technology)) were rinsed once with PBS. A dispase solution (10 mg/ml dispase (Ser. No. 17/105,041, produced by Life Technologies)/DMEM/F-12) was added thereto so as to cover the cells, followed by being left to stand for 5 minutes. […]"}, "[3]": {"tested_on": "Human ES cell lines KhES-1", "assay": "Subculture and cell observation in medium further comprising an NFAT inhibitor", "details": "tacrolimus added in addition to azakenpaullone and ID-8, FIG. 3A", "protocol": "as §1"}}}
{"smiles": "O=C1Cc2c([nH]c3ccc(Br)cc23)-c2ncccc2N1", "note": "[1-azakenpaullone]", "values": [{"measurement": "cell growth (fold increase of the cells), comparison of GSK3β inhibitors", "setting": "[1]; GSK3β inhibitor with ID-8 and tacrolimus, FIG. 3B", "result": "accelerates the cell growth more than kenpaullone"}, {"measurement": "maintenance of the ES cells (stability), among the GSK3β inhibitors", "setting": "[2]", "result": "most stable manner"}]}
{"smiles": "C=CC[C@@H]1/C=C(\\C)C[C@H](C)C[C@H](OC)[C@H]2O[C@@](O)(C(=O)C(=O)N3CCCC[C@H]3C(=O)O[C@H](/C(C)=C/[C@@H]3CC[C@@H](O)[C@H](OC)C3)[C@H](C)[C@@H](O)CC1=O)[C@H](C)C[C@@H]2OC", "note": "[tacrolimus]", "values": [{"measurement": "maintenance of ES cells in an undifferentiated state", "setting": "[3]", "result": "ES cells are maintained in an undifferentiated state"}, {"measurement": "cell growth (fold increase of the cells)", "setting": "[1]; tacrolimus added in addition to azakenpaullone and ID-8, FIG. 3B", "result": "notably accelerated"}]}
{"smiles": "COc1ccc(-n2c(C)c([N+](=O)[O-])c3ccc(O)cc32)cc1", "note": "[ID-8]", "values": [{"measurement": "maintenance of the ES cells (stability), among the DYRK inhibitors", "setting": "[2]; combined with 1-azakenpaullone 750 nM, ID-8 500 nM", "result": "most stable manner"}]}
{"smiles": "O=C1Cc2c([nH]c3ccc(Br)cc23)-c2ccccc2N1", "note": "[kenpaullone]", "values": [{"measurement": "maintenance of the ES cells (stability), among the GSK3β inhibitors", "setting": "[2]", "result": "most stable manner"}]}
